Assay results: patent US20140342379A1, “Means and Methods for Assessing Gonadal Toxicity” (BASF SE, priority 2011, published 2014)
Marks after values point to notes of the source that are not given here. Blank lines part the entries; values can stand above or below the molecule they belong to.

Tests used:
male rats = assay: 28-day repeated dose study, plasma metabolite profiling (GC-MS, LC-MS), male rats; assay type: in vivo, rat
Text: Drinking water was also offered ad libitum.

female rats = assay: 28-day repeated dose study, plasma metabolite profiling (GC-MS, LC-MS), female rats

Compound: CC(=O)CCC(C)=O [2,5-hexanedione]
- 18-Hydroxy-11-deoxycorticosterone, plasma, treatment ratio versus control (male rats; day 7): 0.89
- Alanine, plasma, treatment ratio versus control (male rats; day 7): 0.71*
- Arachidonic acid (C20:cis[5,8,11,14]4), plasma, treatment ratio versus control (male rats; day 7): 0.9
- Coenzyme Q9, plasma, treatment ratio versus control (male rats; day 7): 0.89
- Creatinine, plasma, treatment ratio versus control (male rats; day 7): 1.21*
- DAG (C18:1, C18:2), plasma, treatment ratio versus control (male rats; day 7): 0.51*
- Fructose-6-phosphate, plasma, treatment ratio versus control (male rats; day 7): 0.75*
- Galactose, lipid fraction, plasma, treatment ratio versus control (male rats; day 7): 0.96
- Glucosamine, plasma, treatment ratio versus control (male rats; day 7): 0.79*
- Glucose, plasma, treatment ratio versus control (male rats; day 7): 0.85*
- Glycerol, polar fraction, plasma, treatment ratio versus control (male rats; day 7): 0.96
- Heneicosanoic acid (C21:0), plasma, treatment ratio versus control (male rats; day 7): 0.97
- Lactate, plasma, treatment ratio versus control (male rats; day 7): 0.82*
- Linolenic acid (C18:cis[9,12,15]3), plasma, treatment ratio versus control (male rats; day 7): 0.89*
- Lysine, plasma, treatment ratio versus control (male rats; day 7): 0.96*
- Malate, plasma, treatment ratio versus control (male rats; day 7): 0.79*
- Oleic acid (C18:cis[9]1), plasma, treatment ratio versus control (male rats; day 7): 0.81*
- Palmitoleic acid (C16:cis[9]1), plasma, treatment ratio versus control (male rats; day 7): 0.82*
- Phenylalanine, plasma, treatment ratio versus control (male rats; day 7): 0.85*
- Phosphate (inorganic and organic phosphates), plasma, treatment ratio versus control (male rats; day 7): 0.89*
- Pyruvate, plasma, treatment ratio versus control (male rats; day 7): 1.04
- Spermidine, plasma, treatment ratio versus control (male rats; day 7): 0.95
- TAG (C16:0,C16:1), plasma, treatment ratio versus control (male rats; day 7): 0.49*
- Uracil, plasma, treatment ratio versus control (male rats; day 7): 0.85*
- myo-Inositol, plasma, treatment ratio versus control (male rats; day 7): 0.71*
- trans-4-Hydroxyproline, plasma, treatment ratio versus control (male rats; day 7): 0.84*
- 18-Hydroxy-11-deoxycorticosterone, plasma, treatment ratio versus control (male rats; day 14): 0.33*
- Alanine, plasma, treatment ratio versus control (male rats; day 14): 0.76*
- Arachidonic acid (C20:cis[5,8,11,14]4), plasma, treatment ratio versus control (male rats; day 14): 0.93
- Coenzyme Q9, plasma, treatment ratio versus control (male rats; day 14): 1.12*
- Creatinine, plasma, treatment ratio versus control (male rats; day 14): 1.64*
- DAG (C18:1, C18:2), plasma, treatment ratio versus control (male rats; day 14): 0.6*
- Fructose-6-phosphate, plasma, treatment ratio versus control (male rats; day 14): 0.7*
- Galactose, lipid fraction, plasma, treatment ratio versus control (male rats; day 14): 0.97
- Glucosamine, plasma, treatment ratio versus control (male rats; day 14): 0.9
- Glucose, plasma, treatment ratio versus control (male rats; day 14): 0.89*
- Glycerol, polar fraction, plasma, treatment ratio versus control (male rats; day 14): 0.98
- Heneicosanoic acid (C21:0), plasma, treatment ratio versus control (male rats; day 14): 0.84
- Lactate, plasma, treatment ratio versus control (male rats; day 14): 0.69*
- Linolenic acid (C18:cis[9,12,15]3), plasma, treatment ratio versus control (male rats; day 14): 0.57*
- Lysine, plasma, treatment ratio versus control (male rats; day 14): 0.93*
- Malate, plasma, treatment ratio versus control (male rats; day 14): 0.82*
- Oleic acid (C18:cis[9]1), plasma, treatment ratio versus control (male rats; day 14): 0.81*
- Palmitoleic acid (C16:cis[9]1), plasma, treatment ratio versus control (male rats; day 14): 1.03
- Phenylalanine, plasma, treatment ratio versus control (male rats; day 14): 0.84*
- Phosphate (inorganic and organic phosphates), plasma, treatment ratio versus control (male rats; day 14): 1
- Pyruvate, plasma, treatment ratio versus control (male rats; day 14): 0.95
- Spermidine, plasma, treatment ratio versus control (male rats; day 14): 0.89*
- TAG (C16:0,C16:1), plasma, treatment ratio versus control (male rats; day 14): 0.67*
- Uracil, plasma, treatment ratio versus control (male rats; day 14): 0.83*
- myo-Inositol, plasma, treatment ratio versus control (male rats; day 14): 0.79*
- trans-4-Hydroxyproline, plasma, treatment ratio versus control (male rats; day 14): 0.91*
- 18-Hydroxy-11-deoxycorticosterone, plasma, treatment ratio versus control (male rats; day 28): 0.24*
- Alanine, plasma, treatment ratio versus control (male rats; day 28): 0.77*
- Arachidonic acid (C20:cis[5,8,11,14]4), plasma, treatment ratio versus control (male rats; day 28): 1.03
- Coenzyme Q9, plasma, treatment ratio versus control (male rats; day 28): 1.02
- Creatinine, plasma, treatment ratio versus control (male rats; day 28): 1.35*
- DAG (C18:1, C18:2), plasma, treatment ratio versus control (male rats; day 28): 0.79*
- Fructose-6-phosphate, plasma, treatment ratio versus control (male rats; day 28): 0.69*
- Galactose, lipid fraction, plasma, treatment ratio versus control (male rats; day 28): 0.99
- Glucosamine, plasma, treatment ratio versus control (male rats; day 28): 0.91*
- Glucose, plasma, treatment ratio versus control (male rats; day 28): 0.85*
- Glycerol, polar fraction, plasma, treatment ratio versus control (male rats; day 28): 0.8*
- Heneicosanoic acid (C21:0), plasma, treatment ratio versus control (male rats; day 28): 0.99
- Lactate, plasma, treatment ratio versus control (male rats; day 28): 0.66*
- Linolenic acid (C18:cis[9,12,15]3), plasma, treatment ratio versus control (male rats; day 28): 0.92*
- Lysine, plasma, treatment ratio versus control (male rats; day 28): 0.96
- Malate, plasma, treatment ratio versus control (male rats; day 28): 0.74*
- Oleic acid (C18:cis[9]1), plasma, treatment ratio versus control (male rats; day 28): 0.92*
- Palmitoleic acid (C16:cis[9]1), plasma, treatment ratio versus control (male rats; day 28): 1.11
- Phenylalanine, plasma, treatment ratio versus control (male rats; day 28): 0.89*
- Phosphate (inorganic and organic phosphates), plasma, treatment ratio versus control (male rats; day 28): 1.01
- Pyruvate, plasma, treatment ratio versus control (male rats; day 28): 0.72*
- Spermidine, plasma, treatment ratio versus control (male rats; day 28): 0.94
- TAG (C16:0,C16:1), plasma, treatment ratio versus control (male rats; day 28): 0.95
- Uracil, plasma, treatment ratio versus control (male rats; day 28): 0.87*
- myo-Inositol, plasma, treatment ratio versus control (male rats; day 28): 0.89
- trans-4-Hydroxyproline, plasma, treatment ratio versus control (male rats; day 28): 0.87*

- 3-Methoxytyrosine, plasma, treatment ratio versus control (female rats; day 7): 1.09
- Arachidonic acid (C20:cis[5,8,11,14]4), plasma, treatment ratio versus control (female rats; day 7): 0.64*
- Campesterol, plasma, treatment ratio versus control (female rats; day 7): 0.61*
- Cholesterol, plasma, treatment ratio versus control (female rats; day 7): 0.65*
- Choline plasmalogen No 03, plasma, treatment ratio versus control (female rats; day 7): 0.89*
- Citrate, plasma, treatment ratio versus control (female rats; day 7): 0.83*
- Docosahexaenoic acid (C22:cis[4,7,10,13,16,19]6), plasma, treatment ratio versus control (female rats; day 7): 0.73*
- Docosapentaenoic acid (C22:cis[7,10,13,16,19]5), plasma, treatment ratio versus control (female rats; day 7): 0.67
- Dodecanol, plasma, treatment ratio versus control (female rats; day 7): 0.59*
- Elaidic acid (C18:trans[9]1), plasma, treatment ratio versus control (female rats; day 7): 0.74*
- Glycerol phosphate, lipid fraction, plasma, treatment ratio versus control (female rats; day 7): 0.52*
- Lysophosphatidylcholine (C20:4), plasma, treatment ratio versus control (female rats; day 7): 0.93
- Metanephrine, plasma, treatment ratio versus control (female rats; day 7): 0.9
- Phosphatidylcholine (C18:0,C18:1), plasma, treatment ratio versus control (female rats; day 7): 0.85
- Phosphatidylcholine (C18:0,C22:6), plasma, treatment ratio versus control (female rats; day 7): 0.87*
- Phosphatidylcholine No 04, plasma, treatment ratio versus control (female rats; day 7): 0.67*
- Progesterone, plasma, treatment ratio versus control (female rats; day 7): 0.67
- alpha-Tocopherol, plasma, treatment ratio versus control (female rats; day 7): 0.75
- gamma-Linolenic acid (C18:cis[6,9,12]3), plasma, treatment ratio versus control (female rats; day 7): 0.76
- myo-Inositol, lipid fraction, plasma, treatment ratio versus control (female rats; day 7): 0.63*
- threo-Sphingosine, plasma, treatment ratio versus control (female rats; day 7): 0.56*
- 3-Methoxytyrosine, plasma, treatment ratio versus control (female rats; day 14): 1
- Arachidonic acid (C20:cis[5,8,11,14]4), plasma, treatment ratio versus control (female rats; day 14): 0.71*
- Campesterol, plasma, treatment ratio versus control (female rats; day 14): 0.66*
- Cholesterol, plasma, treatment ratio versus control (female rats; day 14): 0.72*
- Choline plasmalogen No 03, plasma, treatment ratio versus control (female rats; day 14): 0.77*
- Citrate, plasma, treatment ratio versus control (female rats; day 14): 0.94
- Docosahexaenoic acid (C22:cis[4,7,10,13,16,19]6), plasma, treatment ratio versus control (female rats; day 14): 0.78*
- Docosapentaenoic acid (C22:cis[7,10,13,16,19]5), plasma, treatment ratio versus control (female rats; day 14): 0.97
- Dodecanol, plasma, treatment ratio versus control (female rats; day 14): 0.84*
- Elaidic acid (C18:trans[9]1), plasma, treatment ratio versus control (female rats; day 14): 0.71*
- Glycerol phosphate, lipid fraction, plasma, treatment ratio versus control (female rats; day 14): 0.76
- Lysophosphatidylcholine (C20:4), plasma, treatment ratio versus control (female rats; day 14): 0.93
- Metanephrine, plasma, treatment ratio versus control (female rats; day 14): 0.61
- Phosphatidylcholine (C18:0,C18:1), plasma, treatment ratio versus control (female rats; day 14): 0.8*
- Phosphatidylcholine (C18:0,C22:6), plasma, treatment ratio versus control (female rats; day 14): 0.9
- Phosphatidylcholine No 04, plasma, treatment ratio versus control (female rats; day 14): 0.8*
- Progesterone, plasma, treatment ratio versus control (female rats; day 14): 0.45*
- alpha-Tocopherol, plasma, treatment ratio versus control (female rats; day 14): 0.76*
- gamma-Linolenic acid (C18:cis[6,9,12]3), plasma, treatment ratio versus control (female rats; day 14): 0.69
- myo-Inositol, lipid fraction, plasma, treatment ratio versus control (female rats; day 14): 0.77*
- threo-Sphingosine, plasma, treatment ratio versus control (female rats; day 14): 0.79
- 3-Methoxytyrosine, plasma, treatment ratio versus control (female rats; day 28): 1.09
- Arachidonic acid (C20:cis[5,8,11,14]4), plasma, treatment ratio versus control (female rats; day 28): 0.78
- Campesterol, plasma, treatment ratio versus control (female rats; day 28): 0.83
- Cholesterol, plasma, treatment ratio versus control (female rats; day 28): 0.76
- Choline plasmalogen No 03, plasma, treatment ratio versus control (female rats; day 28): 0.74*
- Citrate, plasma, treatment ratio versus control (female rats; day 28): 0.89*
- Docosahexaenoic acid (C22:cis[4,7,10,13,16,19]6), plasma, treatment ratio versus control (female rats; day 28): 0.75*
- Docosapentaenoic acid (C22:cis[7,10,13,16,19]5), plasma, treatment ratio versus control (female rats; day 28): 1
- Dodecanol, plasma, treatment ratio versus control (female rats; day 28): 0.86
- Elaidic acid (C18:trans[9]1), plasma, treatment ratio versus control (female rats; day 28): 0.79
- Glycerol phosphate, lipid fraction, plasma, treatment ratio versus control (female rats; day 28): 0.79
- Lysophosphatidylcholine (C20:4), plasma, treatment ratio versus control (female rats; day 28): 0.87*
- Metanephrine, plasma, treatment ratio versus control (female rats; day 28): 0.81
- Phosphatidylcholine (C18:0,C18:1), plasma, treatment ratio versus control (female rats; day 28): 0.7*
- Phosphatidylcholine (C18:0,C22:6), plasma, treatment ratio versus control (female rats; day 28): 0.99
- Phosphatidylcholine No 04, plasma, treatment ratio versus control (female rats; day 28): 0.69*
- Progesterone, plasma, treatment ratio versus control (female rats; day 28): 0.38*
- alpha-Tocopherol, plasma, treatment ratio versus control (female rats; day 28): 0.61*
- gamma-Linolenic acid (C18:cis[6,9,12]3), plasma, treatment ratio versus control (female rats; day 28): 0.73*
- myo-Inositol, lipid fraction, plasma, treatment ratio versus control (female rats; day 28): 0.86
- threo-Sphingosine, plasma, treatment ratio versus control (female rats; day 28): 0.79
Compound: CC#C[C@]1(O)CC[C@H]2[C@@H]3CCC4=CC(=O)CCC4=C3[C@@H](c3ccc(N(C)C)cc3)C[C@@]21C [Mifepristone, (11b,17b)-11-[4-(Dimethylamino)phenyl]-17-hydroxy-17-(1-propynyl)estra-4,9-dien-3-one]
